According to patent publication US20220089575A1, “FARNESOID X RECEPTOR AGONISTS AND USES THEREOF” (Metacrine, Inc., priority 2017, published 2022):

Molecular target: T1, hFXR (Homo sapiens, UniProt Q96RI1)
T1 construct: expressed in transfected cells; host or cells: CV-1 cells
T1 sequence (Q96RI1 1-486): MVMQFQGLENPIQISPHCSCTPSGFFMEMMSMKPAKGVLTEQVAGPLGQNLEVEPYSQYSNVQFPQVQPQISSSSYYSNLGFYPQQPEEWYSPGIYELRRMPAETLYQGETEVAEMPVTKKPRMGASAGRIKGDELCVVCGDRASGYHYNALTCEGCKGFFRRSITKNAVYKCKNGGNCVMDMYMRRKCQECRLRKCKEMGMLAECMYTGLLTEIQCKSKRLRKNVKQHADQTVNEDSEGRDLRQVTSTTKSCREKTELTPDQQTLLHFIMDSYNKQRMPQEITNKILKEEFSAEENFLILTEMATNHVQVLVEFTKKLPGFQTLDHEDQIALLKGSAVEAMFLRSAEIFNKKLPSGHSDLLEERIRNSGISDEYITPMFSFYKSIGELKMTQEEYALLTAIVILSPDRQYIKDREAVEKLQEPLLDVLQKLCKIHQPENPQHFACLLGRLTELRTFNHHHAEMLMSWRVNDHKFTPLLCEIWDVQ
T1 sequence (P19793 1-462 partner): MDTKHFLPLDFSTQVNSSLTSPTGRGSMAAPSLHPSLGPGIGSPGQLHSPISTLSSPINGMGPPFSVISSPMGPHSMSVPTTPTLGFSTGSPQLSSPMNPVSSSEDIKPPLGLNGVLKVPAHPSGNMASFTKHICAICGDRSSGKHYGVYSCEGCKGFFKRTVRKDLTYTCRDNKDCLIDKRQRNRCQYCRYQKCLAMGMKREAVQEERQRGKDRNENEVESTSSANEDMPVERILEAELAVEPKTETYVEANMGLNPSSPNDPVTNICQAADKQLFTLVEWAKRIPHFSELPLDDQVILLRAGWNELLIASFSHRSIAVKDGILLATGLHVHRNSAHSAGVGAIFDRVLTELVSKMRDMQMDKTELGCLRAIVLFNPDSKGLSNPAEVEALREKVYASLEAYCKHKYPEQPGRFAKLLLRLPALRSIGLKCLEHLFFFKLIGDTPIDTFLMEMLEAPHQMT
Assay: In Vitro FXR Assay (TK): TK-ECRE-luc reporter in transfected CV-1 cells
Assay type: cell-based
Details: 18 hrs, luminescence, maximum efficacy of <25% of the Fexarmine control classified as '+'
Experimental: CV-1 cells were seeded at a density of 2,000,000 cells in a T175 flask with DMEM+10% charcoal double-stripped FBS and incubated at 37° C. in 5% CO2 for 18 h (O/N).
After 18 h of incubation, the medium in the T175 flask was changed with fresh DMEM+10% charcoal super-stripped serum. In a polypropylene tube, 2500 μL OptiMEM (Life Technologies, Cat #31985-062) was combined with expression plasmids for hFXR, hRXR, TK-ECRE-luc and pCMX-YFP. The tube was then briefly vortexed and incubated at room temperature for 5 minutes. Transfection reagent (X-tremeGENE HP from Roche, Cat #06 366 236 001) was added to the OptiMEM/plasmid mixture vortexed and incubated at room temperature for 20 minutes. Following incubation, the transfection reagent/DNA mixture complex was added to cells in the T175 flask and the cells were incubated at 37° C. in 5% CO2 for 18 h (O/N).
Compounds were serially diluted in DMSO and added to transfected CV-1 cells. The cells were then incubated for 18 hrs. The next day cells were lysed and examined for luminescence.

EC50, ≤ 250 nM:
CNC(=O)O[C@H]1CC[C@H](C(=O)N(C[C@H]2CC[C@H](c3ccc(N(C)C)nc3)CC2)c2cccc(-c3cnc(C4CC4)s3)c2)CC1 [Compound 1, trans-4-((3-(2-Cyclopropylthiazol-5-yl)phenyl)((trans-4-(6-(dimethylamino)pyridin-3-yl)cyclohexyl)methyl)carbamoyl)cyclohexyl methylcarbamate]
CNC(=O)O[C@H]1CC[C@H](C(=O)N(C[C@H]2CC[C@H](c3ccc(OC)c(C)c3)CC2)c2cccc(-c3cnc(C4CC4)s3)c2)CC1 [Compound 1.01, trans-4-((3-(2-Cyclopropylthiazol-5-yl)phenyl)((trans-4-(4-methoxy-3-methylphenyl)cyclohexyl)methyl)carbamoyl)cyclohexyl methylcarbamate]
CNC(=O)O[C@H]1CC[C@H](C(=O)N(CC23CCC(c4ccc(N(C)C)nc4)(CC2)CC3)c2cccc(-c3cnc(C4CC4)s3)c2)CC1 [Compound 1.02, 4-((3-(2-Cyclopropylthiazol-5-yl)phenyl)((4-(6-(dimethylamino)pyridin-3-yl)bicyclo[2.2.2]octan-1-yl)methyl)carbamoyl)cyclohexyl trans-methylcarbamate]
CNC(=O)O[C@H]1CC[C@H](C(=O)N(C[C@H]2CC[C@H](c3ccc4c(c3)c(F)nn4C)CC2)c2cccc(-c3cnc(C4CC4)s3)c2)CC1 [Compound 1.03, trans-4-((3-(2-Cyclopropylthiazol-5-yl)phenyl)((trans-4-(3-fluoro-1-methyl-1H-indazol-5-yl)cyclohexyl)methyl)carbamoyl)cyclohexyl methylcarbamate]
CNC(=O)O[C@H]1CC[C@H](C(=O)N(C[C@H]2CC[C@H](c3ccc(OC)c(C)c3)CC2)c2cccc(-c3cnn(C4CC4)c3)c2)CC1 [Compound 1.04, trans-4-((3-(1-Cyclopropyl-1H-pyrazol-4-yl)phenyl)((trans-4-(4-methoxy-3-methylphenyl)cyclohexyl)methyl)carbamoyl)cyclohexyl methylcarbamate]
CNC(=O)O[C@H]1CC[C@H](C(=O)N(CC23CCC(c4ccc(OC)c(C)c4)(CC2)CC3)c2cccc(-c3cnn(C4CC4)c3)c2)CC1 [Compound 1.05, 4-((3-(1-Cyclopropyl-1H-pyrazol-4-yl)phenyl)((4-(4-methoxy-3-methylphenyl)bicyclo[2.2.2]octan-1-yl)methyl)carbamoyl)cyclohexyl trans-methylcarbamate]
COc1ccc([C@H]2CC[C@H](CN(c3cccc(-c4cnn(C5CC5)c4)c3)C(=O)[C@H]3CC[C@H](OC(N)=O)CC3)CC2)cc1C [Compound 1.06, trans-4-((3-(1-Cyclopropyl-1H-pyrazol-4-yl)phenyl)((trans-4-(4-methoxy-3-methylphenyl)cyclohexyl)methyl)carbamoyl)cyclohexyl carbamate]
COC(=O)O[C@H]1CC[C@H](C(=O)N(C[C@H]2CC[C@H](c3ccc(OC)c(C)c3)CC2)c2cccc(-c3cnn(C4CC4)c3)c2)CC1 [Compound 1.07, trans-4-((3-(1-Cyclopropyl-1H-pyrazol-4-yl)phenyl)((trans-4-(4-methoxy-3-methylphenyl)cyclohexyl)methyl)carbamoyl)cyclohexyl methyl carbonate]
COc1ccc(C23CCC(CN(c4cccc(-c5cnn(C6CC6)c5)c4)C(=O)[C@H]4CC[C@H](OC(N)=O)CC4)(CC2)CC3)cc1C [Compound 1.08, 4-((3-(1-Cyclopropyl-1H-pyrazol-4-yl)phenyl)((4-(4-methoxy-3-methylphenyl)bicyclo[2.2.2]octan-1-yl)methyl)carbamoyl)cyclohexyl trans-carbamate]
CNC(=O)O[C@H]1CC[C@H](C(=O)N(C[C@H]2CC[C@H](c3ccc4c(c3)c(F)nn4C)CC2)c2cccc(-c3cnn(C4CC4)c3)c2)CC1 [Compound 1.09, trans-4-((3-(1-Cyclopropyl-1H-pyrazol-4-yl)phenyl)((trans-4-(3-fluoro-1-methyl-1H-indazol-5-yl)cyclohexyl)methyl)carbamoyl)cyclohexyl methylcarbamate]
CNC(=O)O[C@H]1CC[C@H](C(=O)N(C[C@H]2CC[C@H](c3ccc(OC)c(C)n3)CC2)c2cccc(-c3cnn(C(C)C)c3)c2)CC1 [Compound 1.10, trans-4-((3-(1-Isopropyl-1H-pyrazol-4-yl)phenyl)((trans-4-(5-methoxy-6-methylpyridin-2-yl)cyclohexyl)methyl)carbamoyl)cyclohexyl methylcarbamate]
CNC(=O)O[C@H]1CC[C@H](C(=O)N(C[C@H]2CC[C@H](c3ccc(OC)c(C)c3)CC2)c2cccc(-c3cc(C4CC4)ns3)c2)CC1 [Compound 2, trans-4-((3-(3-Cyclopropylisothiazol-5-yl)phenyl)((trans-4-(4-methoxy-3-methylphenyl)cyclohexyl)methyl)carbamoyl)cyclohexyl methylcarbamate]
CNC(=O)O[C@H]1CC[C@H](C(=O)N(C[C@H]2CC[C@H](c3ccc(OC)c(C)c3)CC2)c2cccc(-c3cnc(OC)s3)c2)CC1 [Compound 2.01, trans-4-(((trans-4-(4-Methoxy-3-methylphenyl)cyclohexyl)methyl)(3-(2-methoxythiazol-5-yl)phenyl)carbamoyl)cyclohexyl methylcarbamate]
CNC(=O)O[C@H]1CC[C@H](C(=O)N(C[C@H]2CC[C@H](c3ccc(OC)c(C)n3)CC2)c2cccc(-c3cnc(C4CC4)s3)c2)CC1 [Compound 2.02, trans-4-((3-(2-Cyclopropylthiazol-5-yl)phenyl)((trans-4-(5-methoxy-6-methylpyridin-2-yl)cyclohexyl)methyl)carbamoyl)cyclohexyl methylcarbamate]
CNC(=O)O[C@H]1CC[C@H](C(=O)N(CC23CCC(c4ccc(OC)c(C)c4)(CC2)CC3)c2cc(-c3cnc(C4CC4)s3)ccn2)CC1 [Compound 2.03, 4-((4-(2-Cyclopropylthiazol-5-yl)pyridin-2-yl)((4-(4-methoxy-3-methylphenyl)bicyclo[2.2.2]octan-1-yl)methyl)carbamoyl)cyclohexyl trans-methylcarbamate]
CNC(=O)O[C@H]1CC[C@H](C(=O)N(C[C@H]2CC[C@H](c3ccc(OC)c(C)c3)CC2)c2cccc(C#Cc3nccs3)c2)CC1 [Compound 2.04, trans-4-(((trans-4-(4-Methoxy-3-methylphenyl)cyclohexyl)methyl)(3-(thiazol-2-ylethynyl)phenyl)carbamoyl)cyclohexyl methylcarbamate]
CNC(=O)O[C@H]1CC[C@H](C(=O)N(CC23CCC(c4ccc(OC)c(C)c4)(CC2)CC3)c2cccc(C#Cc3nccs3)c2)CC1 [Compound 2.05, 4-(((4-(4-Methoxy-3-methylphenyl)bicyclo[2.2.2]octan-1-yl)methyl)(3-(thiazol-2-ylethynyl)phenyl)carbamoyl)cyclohexyl trans-methylcarbamate]
CNC(=O)O[C@H]1CC[C@H](C(=O)N(C[C@H]2CC[C@H](c3ccc(OC)c(C)c3)CC2)c2cccc(-c3coc(C4CC4)n3)c2)CC1 [Compound 2.06, trans-4-((3-(2-Cyclopropyloxazol-4-yl)phenyl)((trans-4-(4-methoxy-3-methylphenyl)cyclohexyl)methyl)carbamoyl)cyclohexyl) methylcarbamate]
CNC(=O)O[C@H]1CC[C@H](C(=O)N(CC23CCC(c4ccc(OC)c(C)c4)(CC2)CC3)c2cccc(-c3coc(C4CC4)n3)c2)CC1 [Compound 2.07, 4-((3-(2-Cyclopropyloxazol-4-yl)phenyl)((4-(4-methoxy-3-methylphenyl)bicyclo[2.2.2]octan-1-yl)methyl)carbamoyl)cyclohexyl trans-methylcarbamate]
